{"source": "patent US10336726B2", "about": "“3-methyl-pyrrolidine-2,5-dione derivatives useful as CGRP receptor antagonists” (Eli Lilly and Company, priority 2017, dated 2019)", "key": {"[1]": {"experiment": "In vivo determination of plasma and brain concentrations and unbound brain-to-plasma partition coefficient (Kp,uu,brain) in rats", "details": "for concentration at 1 h / concentration at 3 h: male, Sprague-Dawley, oral, 10 mg/kg", "method": "In Vivo Determination of Unbound Brain-to-Plasma Partition Coefficient (Kp,uu,brain) in Rats\nUnbound brain-to-plasma partition coefficient (Kp,uu,brain) is one of the key pharmacokinetic parameter for evaluating a compound's ability to cross the blood-brain barrier (BBB) (Hammarlund-Udenaes, M.; Friden, M.; Syvanen, S.; Gupta, A. On the Rate and Extent of Drug Delivery to the Brain. Pharm. Res. 2008, 25 (8), 1737-1750).\nAnimal studies are performed under protocols approved by the Covance Institutional Animal Care and Use Committee. Male Sprague-Dawley rats weighing 250-350 g are obtained from Harlan Sprague Dawley Inc. (Indianapolis, Ind.). Animals have access to food and water ad libitum before and during the study.\nAnimals each receive 10 mg/kg of the CGRP receptor antagonist compound of Example 1, administered orally in 10 ml/kg of hydroxyethylcellulose 1% w/v/polysorbate 80 0.25% v/v/Antifoam 1510-US 0.05% v/v/in purified water (probe sonicated).\nThree animals per time point are used. […] The blood samples are treated with K3-EDTA anticoagulant, and plasma is obtained by centrifugation at 1600 g for 10 minutes. The brain samples are weighed and homogenized, without perfusion. All samples are stored at −70° C. until analysis by LC-MS/MS to determine the concentration of the compound of Example 1 in plasma and brain at each time point.\nKp,uu,brain is calculated for each time point from the expression below where individual components are derived from a combination of in vitro and in vivo measurements carried out as described above:\n[formula] where Ctotal,brain, Cu,brain, Ctotal,plasma and Cu,plasma are total and unbound brain and plasma concentrations, and fu,brain and fu,plasma are fractions unbound in brain and plasma, respectively."}, "[2]": {"experiment": "Rat plasma and brain homogenate protein binding by equilibrium dialysis", "format": "in vitro ADME", "method": "Determination of Plasma and Brain Protein Binding:\nRat plasma and brain homogenate protein in vitro binding is determined using equilibrium dialysis, as described elsewhere [Zamek-Gliszczynski et al., J Pharm Sci, 101:1932-1940, 2012]. The results are reported as fraction unbound in plasma (fu,plasma) and brain (fu,brain), which are then utilized to calculate Kp,uu,brain, as described in Table 1. Rat fu,plasma and fu,brain of the compound of Example 1 are determined to be 0.071 and 0.043, respectively."}, "[3]": {"molecular_target": "T1, ABCB1, human P-glycoprotein (Pgp) (Homo sapiens, UniProt P08183)", "T1 construct": "host or cells: MDCKII cells", "T1 sequence (P08183 whole entry)": "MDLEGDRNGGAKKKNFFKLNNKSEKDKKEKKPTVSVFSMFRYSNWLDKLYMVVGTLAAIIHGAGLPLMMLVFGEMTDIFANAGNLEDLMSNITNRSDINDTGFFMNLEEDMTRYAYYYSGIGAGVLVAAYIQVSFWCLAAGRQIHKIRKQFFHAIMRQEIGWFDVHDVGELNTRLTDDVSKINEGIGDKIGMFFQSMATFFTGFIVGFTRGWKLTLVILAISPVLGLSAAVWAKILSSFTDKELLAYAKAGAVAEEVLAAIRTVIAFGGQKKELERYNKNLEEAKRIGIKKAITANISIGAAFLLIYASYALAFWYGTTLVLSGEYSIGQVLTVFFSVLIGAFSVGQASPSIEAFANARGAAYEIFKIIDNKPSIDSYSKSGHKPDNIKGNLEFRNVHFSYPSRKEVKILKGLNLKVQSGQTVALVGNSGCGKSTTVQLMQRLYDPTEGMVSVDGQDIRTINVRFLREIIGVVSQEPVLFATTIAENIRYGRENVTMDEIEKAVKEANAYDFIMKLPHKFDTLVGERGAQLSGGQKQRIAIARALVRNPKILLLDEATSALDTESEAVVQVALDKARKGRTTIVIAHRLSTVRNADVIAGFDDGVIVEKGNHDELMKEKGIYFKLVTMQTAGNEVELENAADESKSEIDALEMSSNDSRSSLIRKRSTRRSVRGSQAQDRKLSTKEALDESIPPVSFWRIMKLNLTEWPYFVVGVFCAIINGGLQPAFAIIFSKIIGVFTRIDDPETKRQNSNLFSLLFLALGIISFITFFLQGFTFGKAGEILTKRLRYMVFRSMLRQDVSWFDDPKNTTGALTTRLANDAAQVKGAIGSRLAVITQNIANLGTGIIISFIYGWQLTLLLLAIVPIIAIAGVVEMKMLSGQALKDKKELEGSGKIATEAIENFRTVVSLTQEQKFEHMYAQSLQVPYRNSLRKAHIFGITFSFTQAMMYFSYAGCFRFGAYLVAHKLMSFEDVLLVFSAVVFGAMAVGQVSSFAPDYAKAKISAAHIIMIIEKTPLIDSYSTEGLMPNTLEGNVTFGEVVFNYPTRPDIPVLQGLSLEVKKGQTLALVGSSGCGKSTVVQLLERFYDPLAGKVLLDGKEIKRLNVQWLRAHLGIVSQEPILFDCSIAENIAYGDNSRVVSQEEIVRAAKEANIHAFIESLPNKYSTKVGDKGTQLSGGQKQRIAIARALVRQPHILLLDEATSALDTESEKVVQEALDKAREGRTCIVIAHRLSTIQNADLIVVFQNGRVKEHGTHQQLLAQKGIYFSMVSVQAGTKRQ", "experiment": "In vitro determination of efflux by Pgp; bi-directional transport across MDCKII cells", "format": "in vitro ADME", "details": "MDCKII cells expressing human ABCB1, 5 μM substrate, 60 min, B-A/A-B Papp ratios with/without inhibitor", "method": "In Vitro Determination of Efflux by ABCB1, Human P-Glycoprotein (Pgp)\nMDCKII cells stably expressing human wild-type ABCB1 (Pgp) are obtained from the Netherlands Cancer Institute (Amsterdam, The Netherlands). MDCK cells are maintained as described previously (Desai et al., Mol Pharm 10:1249-1261, 2013).\nThe assay is essentially conducted as described previously (Desai et al., Mol Pharm 10:1249-1261, 2013). Transport is measured in both directions across uninhibited and inhibited cell monolayers using a substrate concentration of 5 μM diluted from a 10 mM DMSO stock solution (final DMSO concentration of 0.05%) and a single 60-min time interval. […] The apparent permeability coefficients (Papp) are estimated as the slope of the mass transported per 60 min relative to the total recovered mass. The basal-to-apical (B-A)/apical-to-basal (A-B) Papp ratios are calculated in the absence or presence of inhibitor in each cell line for net efflux ratio (NER). The NER of the compound of Example 1 for efflux by Pgp is determined to be 1.7."}, "[4]": {"molecular_target": "T2, hCGRP (human calcitonin gene-related peptide) receptor (Homo sapiens, UniProt O60894+Q16602)", "T2 construct": "Cultured SK-N-MC neuroblastoma cells that endogenously express the hCGRP receptor (ATCC); host or cells: SK-N-MC neuroblastoma cells", "T2 sequence (Q16602 23-461)": "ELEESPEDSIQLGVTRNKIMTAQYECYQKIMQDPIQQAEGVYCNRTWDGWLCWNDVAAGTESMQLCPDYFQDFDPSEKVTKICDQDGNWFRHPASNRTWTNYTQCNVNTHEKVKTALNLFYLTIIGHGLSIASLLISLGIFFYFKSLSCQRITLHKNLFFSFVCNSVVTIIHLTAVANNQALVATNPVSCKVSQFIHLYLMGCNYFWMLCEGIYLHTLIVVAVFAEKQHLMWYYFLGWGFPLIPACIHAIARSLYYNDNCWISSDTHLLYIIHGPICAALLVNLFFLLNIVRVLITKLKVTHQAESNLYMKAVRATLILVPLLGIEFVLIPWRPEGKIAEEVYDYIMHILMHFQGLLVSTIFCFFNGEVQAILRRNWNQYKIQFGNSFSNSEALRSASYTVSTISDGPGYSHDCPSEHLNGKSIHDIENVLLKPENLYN", "T2 sequence (O60894 27-148)": "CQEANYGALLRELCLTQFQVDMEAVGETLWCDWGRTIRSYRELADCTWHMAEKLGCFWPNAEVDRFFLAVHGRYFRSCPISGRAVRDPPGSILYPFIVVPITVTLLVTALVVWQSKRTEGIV", "experiment": "Inhibition of cAMP production by CGRP receptor antagonists in SK-N-MC cells (HTRF)", "format": "cell-based", "details": "0.8 nM human CGRP challenge, agonist-corrected IC50, mean±SEM, n=11, read-out: Kb measured at human CGRP", "source_text": "Inhibition of cAMP Production by CGRP Receptor Antagonists\nThe hCGRP (human calcitonin gene-related peptide) receptor is functionally coupled to the Gas proteins. Stimulation of hCGRP results in an increased synthesis of intracellular cAMP and can be blocked by the addition of receptor antagonists. Receptor activity is thus a reflection of the amount of cAMP present within cells which can be detected using standard in vitro technology.\nCultured SK-N-MC neuroblastoma cells that endogenously express the hCGRP receptor (ATCC) are grown in Eagle's Minimum essential medium (HYCLONE™) supplemented with 10% heat-inactivated Fetal bovine serum (FBS; GIBCO®), Non-Essential Amino Acids (GIBCO®), 1 mM sodium pyruvate, 2 mM L-glutamine, 100 U/mL of penicillin, and 10 μg/mL of streptomycin to about 70% confluency. […]\nThe amount of intracellular cAMP is quantitated using HTRF technology (Cisbio) as per vendor instructions. […] The HTRF signal is immediately detected using an ENVISION® plate reader (Perkin-Elmer) to calculate the ratio of fluorescence at […]. […] Relative EC50 values are calculated from the top-bottom range of the concentration response curve using a four-parameter logistic curve fitting program (ACTIVITYBASE® v5.3.1.22 or GENEDATA SCREENER® v12.0.4), and Kb values are estimated as agonist-corrected IC50 values using the equation: Kb=(IC50)/[1+([Agonist]/EC50)]. […]"}}, "note": "Like-named read-outs stand apart in the source and are kept apart here.", "data": [{"smiles": "Cc1cc(OCc2ccc([C@@H](C)[C@]3(C)CC(=O)NC3=O)cc2)cc(C2CC2)n1", "note": "[Example 1, (3S)-3-[(1R)-1-[4-[(2-cyclopropyl-6-methyl-4-pyridyl)oxymethyl]phenyl]ethyl]-3-methyl-pyrrolidine-2,5-dione]", "values": [{"measurement": "Unbound brain conc. (Cu,brain)", "setting": "[1]; 1.0 hr post 10 mg/kg oral dose, male Sprague-Dawley rats, using rat fu,brain 0.043, mean ± SD", "result": "41 ± 15", "unit": "nM"}, {"measurement": "Unbound brain conc. (Cu,brain)", "setting": "[1]; 3.0 hr post 10 mg/kg oral dose, male Sprague-Dawley rats, using rat fu,brain 0.043, mean ± SD", "result": "22 ± 5", "unit": "nM"}, {"measurement": "concentration at 1 h", "setting": "[1]; rat, brain, 1.0 hr post 10 mg/kg oral dose, mean ± SD, read-out: Total brain conc. (Ctotal,brain)", "result": "962 ± 341", "unit": "nM"}, {"measurement": "concentration at 1 h", "setting": "[1]; rat, brain, 1.0 hr post 10 mg/kg oral dose, using rat fu,brain 0.043, mean ± SD, read-out: Unbound brain conc. (Cu,brain)", "result": "41 ± 15", "unit": "nM"}, {"measurement": "concentration at 3 h", "setting": "[1]; rat, brain, 3.0 hr post 10 mg/kg oral dose, mean ± SD, read-out: Total brain conc. (Ctotal,brain)", "result": "515 ± 111", "unit": "nM"}, {"measurement": "concentration at 3 h", "setting": "[1]; rat, brain, 3.0 hr post 10 mg/kg oral dose, using rat fu,brain 0.043, mean ± SD, read-out: Unbound brain conc. (Cu,brain)", "result": "22 ± 5", "unit": "nM"}, {"measurement": "concentration at 1 h", "setting": "[1]; rat, plasma, 1.0 hr post 10 mg/kg oral dose, mean ± SD, read-out: Total plasma conc. (Ctotal,plasma)", "result": "655 ± 183", "unit": "nM"}, {"measurement": "concentration at 1 h", "setting": "[1]; rat, plasma, 1.0 hr post 10 mg/kg oral dose, using rat fu,plasma 0.071, mean ± SD, read-out: Unbound plasma conc. (Cu,plasma)", "result": "47 ± 13", "unit": "nM"}, {"measurement": "concentration at 3 h", "setting": "[1]; rat, plasma, 3.0 hr post 10 mg/kg oral dose, mean ± SD, read-out: Total plasma conc. (Ctotal,plasma)", "result": "368 ± 127", "unit": "nM"}, {"measurement": "concentration at 3 h", "setting": "[1]; rat, plasma, 3.0 hr post 10 mg/kg oral dose, using rat fu,plasma 0.071, mean ± SD, read-out: Unbound plasma conc. (Cu,plasma)", "result": "26 ± 9", "unit": "nM"}, {"measurement": "Kp uu at 1 h", "setting": "[1]; rat, brain/plasma, 1.0 hr post 10 mg/kg oral dose, male Sprague-Dawley rats, mean ± SD", "result": "0.89 ± 0.17"}, {"measurement": "Kp uu at 3 h", "setting": "[1]; rat, brain/plasma, 3.0 hr post 10 mg/kg oral dose, male Sprague-Dawley rats, mean ± SD", "result": "0.93 ± 0.43"}, {"measurement": "fraction unbound in brain (fu,brain)", "setting": "[2]; rat brain homogenate", "result": 0.043}, {"measurement": "fraction unbound", "setting": "[2]; rat plasma, read-out: fraction unbound in plasma (fu,plasma)", "result": 0.071}, {"measurement": "net efflux ratio (NER) for efflux by Pgp", "setting": "[3]", "result": 1.7}, {"measurement": "Kb", "setting": "[4]", "result": "570 ± 250", "unit": "pM"}]}]}
